Values quoted from earlier work as cited in patent US20250017894A1, “Formulation for Nasal Delivery of Cannabinoids” (priority 2019, published 2025).

## C=C(C)[C@@H]1CCC(C)=C[C@H]1c1c(O)cc(CCCCC)cc1O [CBD, Cannabidiol]
Inhalation of vaporized CBD
  bioavailability, inhalation using vaporized CBD: 26-36%
Intranasal administration
  bioavailability for intranasal administration: 34-46%
Oral administration
  oral bioavailability: 6-15%
Sublingual administration
  bioavailability, sublingual administration: 20-35%
